Patent publication US10799605B2 (3B PHARMACEUTICALS GMBH, priority 2014, dated 2020)
Read-outs that look alike come from different tables or passages of the source.

Key:
NTR1 = NTR1 (Homo sapiens (Human), UniProt P30989); assay: Functional Ca2+ mobilisation assay (example part II); assay type: cell-based; settings: antagonist assay
In short: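 HT29 or NTR1-expressing HEK293 cells loaded with Ca5 dye for 1 h at 37 °C in buffer at pH 7.4, and fluorescence recorded for about 90 s after addition. EC50 derived from agonist serial dilutions; IC50 from antagonists pre-incubated 30 min before an EC80 agonist challenge.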

A1 (h) = A1 (h) (Homo sapiens (Human), UniProt P30542); assay: ExpresSProfile: adenosine receptor 1, antagonist radioligand; assay type: binding; settings: Test Concentration 1.0E−05 M
A3 (h) = A3 (h) (Homo sapiens (Human), UniProt P0DMS8); assay: ExpresSProfile: adenosine receptor 3, agonist radioligand; assay type: binding; settings: Test Concentration 1.0E−05 M
alpha 2 (non-selective) = assay: ExpresSProfile: alpha2 adrenergic receptor, antagonist radioligand; assay type: binding; settings: Test Concentration 1.0E−05 M
beta 1 (h) = beta 1 (h) (Homo sapiens (Human), UniProt P08588); assay: ExpresSProfile: beta1 adrenergic receptor, agonist radioligand; assay type: binding; settings: Test Concentration 1.0E−05 M
BZD (central) = assay: ExpresSProfile: benzodiazepine, agonist radioligand; assay type: binding; settings: Test Concentration 1.0E−05 M
B2 (h) = B2 (h) (Homo sapiens (Human), UniProt P30411); assay: ExpresSProfile: bradykinin receptor 2, agonist radioligand; assay type: binding; settings: Test Concentration 1.0E−05 M
D2S (h) = D2S (h) (Homo sapiens (Human), UniProt P14416); assay: ExpresSProfile: dopamine receptor 2S, antagonist radioligand; assay type: binding; settings: Test Concentration 1.0E−05 M
ETA (h) = ETA (h) (Homo sapiens (Human), UniProt P25101); assay: ExpresSProfile: endothelin receptor A, agonist radioligand; assay type: binding; settings: Test Concentration 1.0E−05 M
CXCR2 (IL-8B) (h) = CXCR2 (IL-8B) (h) (Homo sapiens (Human), UniProt P25025); assay: ExpresSProfile: C-X-C chemokine receptor type 2, agonist radioligand; assay type: binding; settings: Test Concentration 1.0E−05 M
MC4 (h) = MC4 (h) (Homo sapiens (Human), UniProt P32245); assay: ExpresSProfile: melanocortin receptor 4, agonist radioligand; assay type: binding; settings: Test Concentration 1.0E−05 M
MT1 (ML1A) (h) = MT1 (ML1A) (h) (Homo sapiens (Human), UniProt P48039); assay: ExpresSProfile: melatonin receptor 1, agonist radioligand; assay type: binding; settings: Test Concentration 1.0E−05 M
M1 (h) = M1 (h) (Homo sapiens (Human), UniProt P11229); assay: ExpresSProfile: muscarinic receptor 1, antagonist radioligand; assay type: binding; settings: Test Concentration 1.0E−05 M
M2 (h) = M2 (h) (Homo sapiens (Human), UniProt P08172); assay: ExpresSProfile: muscarinic receptor 2, antagonist radioligand; assay type: binding; settings: Test Concentration 1.0E−05 M
NK3 (h) = NK3 (h) (Homo sapiens (Human), UniProt P29371); assay: ExpresSProfile: neurokinin receptor 3, antagonist radioligand; assay type: binding; settings: Test Concentration 1.0E−05 M
kappa (KOP) = kappa (KOP) (Rattus norvegicus, UniProt P34975); assay: ExpresSProfile: kappa opioid receptor, agonist radioligand; assay type: binding; settings: Test Concentration 1.0E−05 M
mu (MOP) (h) = mu (MOP) (h) (Homo sapiens (Human), UniProt P35372); assay: ExpresSProfile: mu opioid receptor, agonist radioligand; assay type: binding; settings: Test Concentration 1.0E−05 M
5-HT2A (h) = 5-HT2A (h) (Homo sapiens (Human), UniProt P28223); assay: ExpresSProfile: 5-hydroxytryptamine receptor 2A, antagonist radioligand; assay type: binding; settings: Test Concentration 1.0E−05 M
5-HT7 (h) = 5-HT7 (h) (Homo sapiens (Human), UniProt P34969); assay: ExpresSProfile: 5-hydroxytryptamine receptor 7, agonist radioligand; assay type: binding; settings: Test Concentration 1.0E−05 M
dopamine transporter (h) = dopamine transporter (h) (Homo sapiens (Human), UniProt Q01959); assay: ExpresSProfile: dopamine transporter, antagonist radioligand; assay type: binding; settings: Test Concentration 1.0E−05 M
[1] = read-out: % Inhibition of Control Specific Binding
[2] = read-out: % of Control Specific Binding 1st
[3] = read-out: % of Control Specific Binding 2nd
[4] = read-out: % of Control Specific Binding Mean

B2 (h), sequence (P30411 whole entry): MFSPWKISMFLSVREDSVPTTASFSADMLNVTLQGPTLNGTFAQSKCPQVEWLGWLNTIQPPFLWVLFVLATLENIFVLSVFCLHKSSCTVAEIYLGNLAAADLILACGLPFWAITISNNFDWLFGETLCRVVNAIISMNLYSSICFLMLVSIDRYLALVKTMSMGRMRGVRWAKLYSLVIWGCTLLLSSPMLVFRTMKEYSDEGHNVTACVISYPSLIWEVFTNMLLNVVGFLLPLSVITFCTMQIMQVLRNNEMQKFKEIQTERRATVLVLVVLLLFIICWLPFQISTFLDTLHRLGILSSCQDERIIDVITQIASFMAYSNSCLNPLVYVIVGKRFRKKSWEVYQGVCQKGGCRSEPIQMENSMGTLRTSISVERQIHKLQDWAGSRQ
A1 (h), sequence (P30542 whole entry): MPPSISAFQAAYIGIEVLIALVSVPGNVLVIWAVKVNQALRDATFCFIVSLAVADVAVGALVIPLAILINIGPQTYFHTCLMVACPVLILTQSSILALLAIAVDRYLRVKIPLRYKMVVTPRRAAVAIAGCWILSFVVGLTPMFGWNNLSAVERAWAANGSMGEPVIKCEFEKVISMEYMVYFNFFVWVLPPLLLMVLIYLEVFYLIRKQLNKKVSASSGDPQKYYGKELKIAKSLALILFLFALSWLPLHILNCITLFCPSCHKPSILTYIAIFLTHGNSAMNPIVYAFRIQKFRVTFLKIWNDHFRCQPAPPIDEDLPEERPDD
CXCR2 (IL-8B) (h), sequence (P25025 whole entry): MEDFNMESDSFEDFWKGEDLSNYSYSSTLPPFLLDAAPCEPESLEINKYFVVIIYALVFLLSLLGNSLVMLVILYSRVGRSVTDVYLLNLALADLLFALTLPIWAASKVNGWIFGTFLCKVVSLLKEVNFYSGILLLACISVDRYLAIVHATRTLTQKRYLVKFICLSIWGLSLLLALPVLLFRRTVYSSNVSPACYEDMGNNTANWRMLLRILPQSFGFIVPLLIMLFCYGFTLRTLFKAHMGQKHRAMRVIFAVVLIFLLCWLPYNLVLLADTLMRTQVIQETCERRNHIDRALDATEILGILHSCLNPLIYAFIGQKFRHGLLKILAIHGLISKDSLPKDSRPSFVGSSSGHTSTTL
M2 (h), sequence (P08172 whole entry): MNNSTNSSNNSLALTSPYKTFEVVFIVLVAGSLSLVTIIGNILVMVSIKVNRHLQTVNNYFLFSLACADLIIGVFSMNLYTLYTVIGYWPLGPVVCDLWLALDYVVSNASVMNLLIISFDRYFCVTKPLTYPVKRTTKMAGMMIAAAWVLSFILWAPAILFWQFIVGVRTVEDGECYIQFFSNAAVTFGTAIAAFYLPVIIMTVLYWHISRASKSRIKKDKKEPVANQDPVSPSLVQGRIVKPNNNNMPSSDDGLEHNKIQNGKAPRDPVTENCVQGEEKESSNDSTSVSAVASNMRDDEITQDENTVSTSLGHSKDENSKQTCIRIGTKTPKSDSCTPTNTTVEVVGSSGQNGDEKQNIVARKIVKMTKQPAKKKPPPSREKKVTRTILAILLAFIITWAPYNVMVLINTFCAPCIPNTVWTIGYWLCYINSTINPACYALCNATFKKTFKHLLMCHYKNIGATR
M1 (h), sequence (P11229 whole entry): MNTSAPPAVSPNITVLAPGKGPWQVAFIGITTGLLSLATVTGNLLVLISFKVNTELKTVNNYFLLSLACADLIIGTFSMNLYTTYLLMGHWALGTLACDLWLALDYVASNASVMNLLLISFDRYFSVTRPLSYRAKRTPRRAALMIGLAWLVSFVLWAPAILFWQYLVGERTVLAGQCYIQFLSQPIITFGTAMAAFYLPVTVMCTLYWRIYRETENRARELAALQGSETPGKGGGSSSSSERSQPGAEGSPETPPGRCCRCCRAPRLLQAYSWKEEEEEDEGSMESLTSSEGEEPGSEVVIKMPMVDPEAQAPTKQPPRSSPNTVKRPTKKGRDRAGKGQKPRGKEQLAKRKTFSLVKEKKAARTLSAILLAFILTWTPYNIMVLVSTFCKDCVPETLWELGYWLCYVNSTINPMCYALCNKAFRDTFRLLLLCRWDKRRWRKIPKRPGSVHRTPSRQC
MC4 (h), sequence (P32245 whole entry): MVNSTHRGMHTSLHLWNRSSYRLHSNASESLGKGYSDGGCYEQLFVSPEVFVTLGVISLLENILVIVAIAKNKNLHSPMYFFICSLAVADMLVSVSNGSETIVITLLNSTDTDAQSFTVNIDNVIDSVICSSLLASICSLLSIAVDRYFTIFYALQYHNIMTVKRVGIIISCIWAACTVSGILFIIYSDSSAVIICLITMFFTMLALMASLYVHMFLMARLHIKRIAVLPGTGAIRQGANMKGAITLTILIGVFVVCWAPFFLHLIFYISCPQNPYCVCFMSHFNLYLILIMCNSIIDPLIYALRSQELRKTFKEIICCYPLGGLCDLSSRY
5-HT2A (h), sequence (P28223 whole entry): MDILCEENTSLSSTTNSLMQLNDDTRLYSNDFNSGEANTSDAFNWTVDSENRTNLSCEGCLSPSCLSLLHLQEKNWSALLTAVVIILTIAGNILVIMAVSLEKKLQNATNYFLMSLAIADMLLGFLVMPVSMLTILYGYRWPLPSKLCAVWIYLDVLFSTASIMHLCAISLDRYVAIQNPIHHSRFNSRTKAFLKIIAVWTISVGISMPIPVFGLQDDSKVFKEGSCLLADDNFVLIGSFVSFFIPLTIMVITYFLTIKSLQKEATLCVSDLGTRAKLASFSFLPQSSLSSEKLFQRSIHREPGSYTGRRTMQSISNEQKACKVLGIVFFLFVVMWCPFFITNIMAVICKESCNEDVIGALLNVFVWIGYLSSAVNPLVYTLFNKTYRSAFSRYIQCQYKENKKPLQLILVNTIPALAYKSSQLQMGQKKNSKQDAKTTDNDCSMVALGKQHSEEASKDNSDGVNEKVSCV
MT1 (ML1A) (h), sequence (P48039 whole entry): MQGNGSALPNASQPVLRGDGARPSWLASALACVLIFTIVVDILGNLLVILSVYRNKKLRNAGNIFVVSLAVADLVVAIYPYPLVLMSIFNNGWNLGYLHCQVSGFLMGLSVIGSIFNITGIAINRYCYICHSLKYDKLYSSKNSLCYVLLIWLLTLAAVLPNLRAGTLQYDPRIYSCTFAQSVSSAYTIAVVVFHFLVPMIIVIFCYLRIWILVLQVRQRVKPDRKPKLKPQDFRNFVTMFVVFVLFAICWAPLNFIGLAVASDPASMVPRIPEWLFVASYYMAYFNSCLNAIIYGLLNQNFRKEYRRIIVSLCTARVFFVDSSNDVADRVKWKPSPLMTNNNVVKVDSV
ETA (h), sequence (P25101 21-427): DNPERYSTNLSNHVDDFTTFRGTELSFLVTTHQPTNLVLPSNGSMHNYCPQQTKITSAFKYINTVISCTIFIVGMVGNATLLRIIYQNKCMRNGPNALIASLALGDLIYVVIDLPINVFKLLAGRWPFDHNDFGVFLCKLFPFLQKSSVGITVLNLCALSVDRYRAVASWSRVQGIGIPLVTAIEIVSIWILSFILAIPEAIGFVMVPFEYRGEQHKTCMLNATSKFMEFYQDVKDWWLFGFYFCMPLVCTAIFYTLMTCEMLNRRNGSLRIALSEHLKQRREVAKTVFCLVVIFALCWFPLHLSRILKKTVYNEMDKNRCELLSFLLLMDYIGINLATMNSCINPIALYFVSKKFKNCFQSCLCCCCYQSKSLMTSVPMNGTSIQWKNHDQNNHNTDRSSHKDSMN
A3 (h), sequence (P0DMS8 whole entry): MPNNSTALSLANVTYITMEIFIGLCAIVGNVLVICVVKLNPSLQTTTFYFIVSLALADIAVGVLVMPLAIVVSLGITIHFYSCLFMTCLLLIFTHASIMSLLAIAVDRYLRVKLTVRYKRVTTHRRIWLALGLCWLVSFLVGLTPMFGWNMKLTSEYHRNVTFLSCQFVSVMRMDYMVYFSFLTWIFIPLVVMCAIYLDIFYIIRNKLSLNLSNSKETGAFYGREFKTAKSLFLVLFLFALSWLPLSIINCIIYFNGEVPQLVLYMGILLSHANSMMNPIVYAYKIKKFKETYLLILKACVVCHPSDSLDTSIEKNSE
mu (MOP) (h), sequence (P35372 whole entry): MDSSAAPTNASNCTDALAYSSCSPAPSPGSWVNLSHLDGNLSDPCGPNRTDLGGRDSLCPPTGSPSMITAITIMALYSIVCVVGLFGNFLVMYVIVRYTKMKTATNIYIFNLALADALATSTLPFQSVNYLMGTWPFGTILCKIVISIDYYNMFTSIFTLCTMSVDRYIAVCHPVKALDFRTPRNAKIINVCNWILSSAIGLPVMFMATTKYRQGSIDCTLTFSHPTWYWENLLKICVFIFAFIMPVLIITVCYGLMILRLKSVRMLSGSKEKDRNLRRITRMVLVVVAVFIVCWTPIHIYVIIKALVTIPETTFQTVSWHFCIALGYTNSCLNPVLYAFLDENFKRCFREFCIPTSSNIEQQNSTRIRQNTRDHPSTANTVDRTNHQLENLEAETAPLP
dopamine transporter (h), sequence (Q01959 whole entry): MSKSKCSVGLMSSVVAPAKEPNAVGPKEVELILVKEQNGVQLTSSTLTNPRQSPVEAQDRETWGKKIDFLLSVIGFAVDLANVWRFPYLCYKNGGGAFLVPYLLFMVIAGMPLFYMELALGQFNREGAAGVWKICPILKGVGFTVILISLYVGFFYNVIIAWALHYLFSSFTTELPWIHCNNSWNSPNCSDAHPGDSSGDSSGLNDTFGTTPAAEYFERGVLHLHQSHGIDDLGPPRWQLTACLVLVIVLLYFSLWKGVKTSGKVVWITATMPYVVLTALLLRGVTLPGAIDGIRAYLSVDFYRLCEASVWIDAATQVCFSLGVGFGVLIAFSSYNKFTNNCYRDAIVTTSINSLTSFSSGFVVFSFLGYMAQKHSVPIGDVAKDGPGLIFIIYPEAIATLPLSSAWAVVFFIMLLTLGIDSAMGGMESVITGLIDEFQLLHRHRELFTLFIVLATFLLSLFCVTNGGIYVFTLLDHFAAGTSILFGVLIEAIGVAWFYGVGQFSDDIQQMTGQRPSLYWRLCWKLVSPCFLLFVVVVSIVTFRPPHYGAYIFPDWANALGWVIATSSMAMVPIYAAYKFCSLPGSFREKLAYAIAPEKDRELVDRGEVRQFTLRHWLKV

Which IC50 (NTR1) does the source give for `COc1cccc(OC)c1-c1cc(C(=O)NC2(C(=O)O)C3CC4CC(C3)CC2C4)nn1-c1ccc(C(=O)N(C)CCCN(C)CCCN(C)C(=O)CN2CCN(CC(=O)O)CCN(CC(=O)O)CCN(CC(=O)O)CC2)cc1C(C)C` (centres unmarked) [(IIIa), 2-{[1-{4-[(3-{[3-(DOTA-methyl-amino)-propyl]-methyl-amino}-propyl)-methyl-carbamoyl]-2-isopropyl-phenyl}-5-(2,6-dimethoxy-phenyl)-1H-pyrazole-3-carbonyl]-amino}-adamantane-2-carboxylic acid] here?
Its IC50 is 20 nM.

What about the inhibition at 10 µM (A1 (h); [1]) of the same compound?
Its inhibition at 10 µM is -24%.

And the remaining activity at 10 µM (A1 (h); [2])?
The remaining activity at 10 µM was 143%.

And the remaining activity at 10 µM (A1 (h); [3])?
The remaining activity at 10 µM was 104%.

What about the remaining activity at 10 µM (A1 (h); [4]) of the same compound?
The remaining activity at 10 µM was 124%.

What about the inhibition at 10 µM (A3 (h); [1]) of the same compound?
The inhibition at 10 µM was -41%.

And the remaining activity at 10 µM (A3 (h); [2])?
The remaining activity at 10 µM was 129%.

What about the remaining activity at 10 µM (A3 (h); [3]) of the same compound?
The remaining activity at 10 µM was 154%.

What about the remaining activity at 10 µM (A3 (h); [4]) of the same compound?
The remaining activity at 10 µM was 141%.

And the “% Inhibition of Control Specific Binding” value (alpha 2 (non-selective))?
The value was −10%.

And the “% of Control Specific Binding 1st” value (alpha 2 (non-selective))?
The value was 114.4%.

What about the “% of Control Specific Binding 2nd” value (alpha 2 (non-selective)) of the same compound?
The value was 106.1%.

What about the “% of Control Specific Binding Mean” value (alpha 2 (non-selective)) of the same compound?
The value was 110.3%.

And the inhibition at 10 µM (beta 1 (h); [1])?
Its inhibition at 10 µM is 2%.

What about the remaining activity at 10 µM (beta 1 (h); [2]) of the same compound?
The remaining activity at 10 µM was 89.9%.

What about the remaining activity at 10 µM (beta 1 (h); [3]) of the same compound?
Its remaining activity at 10 µM is 106%.

What about the remaining activity at 10 µM (beta 1 (h); [4]) of the same compound?
Its remaining activity at 10 µM is 98%.

And the “% Inhibition of Control Specific Binding” value (BZD (central))?
The value was −16%.

What about the “% of Control Specific Binding 1st” value (BZD (central)) of the same compound?
The value was 109.4%.

And the “% of Control Specific Binding 2nd” value (BZD (central))?
The value was 122.6%.

What about the “% of Control Specific Binding Mean” value (BZD (central)) of the same compound?
The value was 116.0%.

What about the inhibition at 10 µM (B2 (h); [1]) of the same compound?
Its inhibition at 10 µM is 11%.

What about the remaining activity at 10 µM (B2 (h); [2]) of the same compound?
Its remaining activity at 10 µM is 98.7%.

What about the remaining activity at 10 µM (B2 (h); [3]) of the same compound?
The remaining activity at 10 µM was 79.9%.

What about the remaining activity at 10 µM (B2 (h); [4]) of the same compound?
Its remaining activity at 10 µM is 89.3%.

What about the inhibition at 10 µM (D2S (h); [1]) of the same compound?
The inhibition at 10 µM was -9%.

And the remaining activity at 10 µM (D2S (h); [2])?
The remaining activity at 10 µM was 113%.

And the remaining activity at 10 µM (D2S (h); [3])?
Its remaining activity at 10 µM is 105%.

And the remaining activity at 10 µM (D2S (h); [4])?
The remaining activity at 10 µM was 109%.

What about the inhibition at 10 µM (ETA (h); [1]) of the same compound?
Its inhibition at 10 µM is -10%.

And the remaining activity at 10 µM (ETA (h); [2])?
The remaining activity at 10 µM was 114%.

And the remaining activity at 10 µM (ETA (h); [3])?
The remaining activity at 10 µM was 105%.

What about the remaining activity at 10 µM (ETA (h); [4]) of the same compound?
Its remaining activity at 10 µM is 110%.

What about the inhibition at 10 µM (CXCR2 (IL-8B) (h); [1]) of the same compound?
The inhibition at 10 µM was -9%.

What about the remaining activity at 10 µM (CXCR2 (IL-8B) (h); [2]) of the same compound?
Its remaining activity at 10 µM is 119%.

What about the remaining activity at 10 µM (CXCR2 (IL-8B) (h); [3]) of the same compound?
Its remaining activity at 10 µM is 99.6%.

What about the remaining activity at 10 µM (CXCR2 (IL-8B) (h); [4]) of the same compound?
Its remaining activity at 10 µM is 109%.

And the inhibition at 10 µM (MC4 (h); [1])?
Its inhibition at 10 µM is -8%.

What about the remaining activity at 10 µM (MC4 (h); [2]) of the same compound?
Its remaining activity at 10 µM is 113%.

What about the remaining activity at 10 µM (MC4 (h); [3]) of the same compound?
Its remaining activity at 10 µM is 104%.

And the remaining activity at 10 µM (MC4 (h); [4])?
The remaining activity at 10 µM was 108%.

What about the inhibition at 10 µM (MT1 (ML1A) (h); [1]) of the same compound?
The inhibition at 10 µM was 1%.

And the remaining activity at 10 µM (MT1 (ML1A) (h); [2])?
Its remaining activity at 10 µM is 103%.

And the remaining activity at 10 µM (MT1 (ML1A) (h); [3])?
The remaining activity at 10 µM was 95.9%.

What about the remaining activity at 10 µM (MT1 (ML1A) (h); [4]) of the same compound?
The remaining activity at 10 µM was 99.3%.

What about the inhibition at 10 µM (M1 (h); [1]) of the same compound?
Its inhibition at 10 µM is -25%.

And the remaining activity at 10 µM (M1 (h); [2])?
Its remaining activity at 10 µM is 111%.

What about the remaining activity at 10 µM (M1 (h); [3]) of the same compound?
The remaining activity at 10 µM was 138%.

And the remaining activity at 10 µM (M1 (h); [4])?
Its remaining activity at 10 µM is 125%.

And the inhibition at 10 µM (M2 (h); [1])?
The inhibition at 10 µM was -17%.

What about the remaining activity at 10 µM (M2 (h); [2]) of the same compound?
Its remaining activity at 10 µM is 124%.

And the remaining activity at 10 µM (M2 (h); [3])?
The remaining activity at 10 µM was 111%.

And the remaining activity at 10 µM (M2 (h); [4])?
Its remaining activity at 10 µM is 117%.

And the inhibition at 10 µM (NK3 (h); [1])?
Its inhibition at 10 µM is -1%.

And the remaining activity at 10 µM (NK3 (h); [2])?
Its remaining activity at 10 µM is 102%.

And the remaining activity at 10 µM (NK3 (h); [3])?
The remaining activity at 10 µM was 98.5%.

And the remaining activity at 10 µM (NK3 (h); [4])?
The remaining activity at 10 µM was 100%.

And the inhibition at 10 µM (kappa (KOP); [1])?
The inhibition at 10 µM was -2%.

What about the remaining activity at 10 µM (kappa (KOP); [2]) of the same compound?
Its remaining activity at 10 µM is 111%.

And the remaining activity at 10 µM (kappa (KOP); [3])?
The remaining activity at 10 µM was 92.3%.

What about the remaining activity at 10 µM (kappa (KOP); [4]) of the same compound?
The remaining activity at 10 µM was 102%.

And the inhibition at 10 µM (mu (MOP) (h); [1])?
Its inhibition at 10 µM is 0%.

And the remaining activity at 10 µM (mu (MOP) (h); [2])?
The remaining activity at 10 µM was 108%.

And the remaining activity at 10 µM (mu (MOP) (h); [3])?
The remaining activity at 10 µM was 92.6%.

And the remaining activity at 10 µM (mu (MOP) (h); [4])?
Its remaining activity at 10 µM is 100%.

What about the inhibition at 10 µM (5-HT2A (h); [1]) of the same compound?
Its inhibition at 10 µM is -2%.

And the remaining activity at 10 µM (5-HT2A (h); [2])?
Its remaining activity at 10 µM is 101%.

And the remaining activity at 10 µM (5-HT2A (h); [3])?
Its remaining activity at 10 µM is 103%.

What about the remaining activity at 10 µM (5-HT2A (h); [4]) of the same compound?
The remaining activity at 10 µM was 102%.

What about the inhibition at 10 µM (5-HT7 (h); [1]) of the same compound?
The inhibition at 10 µM was 2%.

What about the remaining activity at 10 µM (5-HT7 (h); [2]) of the same compound?
The remaining activity at 10 µM was 96.6%.

What about the remaining activity at 10 µM (5-HT7 (h); [3]) of the same compound?
The remaining activity at 10 µM was 99.7%.

What about the remaining activity at 10 µM (5-HT7 (h); [4]) of the same compound?
Its remaining activity at 10 µM is 98.2%.

And the inhibition at 10 µM (dopamine transporter (h); [1])?
Its inhibition at 10 µM is -15%.

And the remaining activity at 10 µM (dopamine transporter (h); [2])?
Its remaining activity at 10 µM is 124%.

What about the remaining activity at 10 µM (dopamine transporter (h); [3]) of the same compound?
Its remaining activity at 10 µM is 106%.

What about the remaining activity at 10 µM (dopamine transporter (h); [4]) of the same compound?
The remaining activity at 10 µM was 115%.
